Measured values published in patent publication US20250145580A1, “AN IMPROVED PROCESS FOR THE PREPARATION OF FERRIC MALTOL” (RK Pharma Inc., priority 2021, published 2025).

Key:
[1] = Stress Stability study of Polymorphic Form RK2 (XRPD after stress); format: physicochemical
[2] = Stress Stability study of Polymorphic Form Alpha (PXRD after stress); format: physicochemical

SMILES | XRPD ([1]; 50% RH, 12 h) | XRPD ([1]; 75% RH, 12 h) | XRPD ([1]; 90% RH, 12 h) | XRPD ([1]; Drying at 100° C., 3 h) | XRPD ([1]; Drying at 150° C., 3 h) | XRPD ([1]; MTBE Slurry, 12 h) | XRPD ([1]; Micronization study) | XRPD ([1]; Pressure study (Pressure: 17.5 Kg/cm^2)) | XRPD pattern after subjecting to various stress conditions ([1]; various stress conditions as mentioned in the Table 2) | PXRD ([2]; 75% RH, 15 h) | PXRD ([2]; 90% RH, 15 h) | PXRD ([2]; Drying at 30° C., 3 h) | PXRD ([2]; Drying at 70° C., 3 h) | PXRD ([2]; Drying at 100° C., 3 h) | PXRD ([2]; Grinding, 10 min) | PXRD ([2]; Hexane Slurry) | PXRD ([2]; Pressure study (17 Kg/cm2; 15 min)) | XRPD pattern after subjecting to various stress conditions ([2]; various stress conditions as mentioned in the Table 1)
Cc1occc(=O)c1[O-].Cc1occc(=O)c1[O-].Cc1occc(=O)c1[O-].[Fe+3] [Polymorphic Form RK2] | Form RK2 | Form RK2 | Form RK2 | Form RK2 | Form RK2 | Form RK2 | Form RK2 | Form RK2 | stable |  |  |  |  |  |  |  |  | 
Cc1occc(=O)c1[O-].Cc1occc(=O)c1[O-].Cc1occc(=O)c1[O-].[Fe+3] [Polymorphic Form Alpha, 3-hydroxy-2-methyl-4H-pyrane-4-one iron (III) complex (3:1)] |  |  |  |  |  |  |  |  |  | Form Alpha | Form Alpha | Form Alpha | Form Alpha | Form Alpha | Form Alpha | Form Alpha | Form Alpha | stable
